Test results as given in patent US20220296628A1, “RNA COMBINATIONS AND COMPOSITIONS WITH DECREASED IMMUNOSTIMULATORY PROPERTIES” (CureVac AG, priority 2019, published 2022).

How the values were obtained:
mice (strain 129SV) [1] = experiment: In vivo bioluminescence imaging of PpLuc expression after i.v. injection of LNP-formulated PpLuc mRNA with or without oligonucleotide; design: species or system mouse; details: 24 hours post single i.v. injection, 10 μg or 30 μg of mRNA (either dose), oligo 20% or 6.7% mass, compared to PpLuc mRNA without Gm18 (FIG. 2)
Protocol: For preparation of Lipid nanoparticles (LNP) containing both PpLuc mRNA and 2-O-methylated oligonucleotide, first the 2′-O-methylated oligonucleotide was added to PpLuc mRNA at a weight percentage of either 20% or 6.7% (see Table 3). LNP containing PpLuc mRNA either with or without admixture of 2-O-methylated oligonucleotide were prepared using cationic lipid, cholesterol, PEG-lipid and a neutral lipid. The mRNA was diluted to 1 g/L in citrate buffer, pH 4. The ethanolic lipid solution was mixed with the aqueous RNA solution at a ratio of 1:3 (vol/vol) using a Nanoassemblr (PrecisionNanoSystems). The ethanol was then removed and the buffer replaced by 10 mM HEPES, pH 7.4 comprising 9% Sucrose by dialysis. Finally, the LNP-formulated RNA was adjusted to 0.2 g/L. For in vivo experiments, 8 weeks old female mice (around 25 g, strain 129SV) were injected with the various LNP formulations (see tables 4 and 5). 4 animals were used per group. 10 μg or 30 μg of mRNA formulated with or without 2′-O-methylated oligonucleotide were intravenously injected at a concentration of 0.2 g/l. Bioluminescence imaging was performed 6 hours and 24 hours post LNP injection. […] PpLuc expression was quantified from bioluminescence images recorded for 3 minutes starting 5 minutes after i.v. injection of 3 mg of luciferin (see Table 5).

mice (strain 129SV) [2] = experiment: Serum cytokines by CBA 6 hours post LNP injection; format: in vivo, mouse; details: 6 hours post i.v. LNP injection, in a dose-dependent manner (oligo 20% or 6.7% mass), compared to PpLuc mRNA only (FIG. 4A)
Protocol: In supernatants collected from PBMC stimulated without or with 2-O-methylated oligonucleotide, the concentrations of IFN-α, IFN-γ, TNF, were measured by Cytometric Bead Array (CBA) according to the manufacturer's instructions (BD Biosciences) using the following kits: Human Soluble Protein Master Buffer Kit (catalog no. 558264), Assay Diluent (catalog no. 560104), Human IFN-α Flex Set (catalog no. 560379), Human IFN-γ Flex Set (catalog no. 558269), Human TNF Flex Set (catalog no. 560112); all kits from BD Biosciences. The data was analyzed using the FCAP Array v3.0 software (BD Biosciences). For preparation of Lipid nanoparticles (LNP) containing both PpLuc mRNA and 2-O-methylated oligonucleotide, first the 2′-O-methylated oligonucleotide was added to PpLuc mRNA at a weight percentage of either 20% or 6.7% (see Table 3). LNP containing PpLuc mRNA either with or without admixture of 2-O-methylated oligonucleotide were prepared using cationic lipid, cholesterol, PEG-lipid and a neutral lipid. The mRNA was diluted to 1 g/L in citrate buffer, pH 4. The ethanolic lipid solution was mixed with the aqueous RNA solution at a ratio of 1:3 (vol/vol) using a Nanoassemblr (PrecisionNanoSystems). The ethanol was then removed and the buffer replaced by 10 mM HEPES, pH 7.4 comprising 9% Sucrose by dialysis. Finally, the LNP-formulated RNA was adjusted to 0.2 g/L. For in vivo experiments, 8 weeks old female mice (around 25 g, strain 129SV) were injected with the various LNP formulations (see tables 4 and 5). 4 animals were used per group. 10 μg or 30 μg of mRNA formulated with or without 2′-O-methylated oligonucleotide were intravenously injected at a concentration of 0.2 g/l. Bioluminescence imaging was performed 6 hours and 24 hours post LNP injection. Blood was sampled 6 hours post LNP injection and terminally 24 hours post LNP injection. Immediately thereafter, mice were sacrificed, livers collected and placed in 1.5 ml PP tubes, frozen and stored until analysis (<−70° C.). To analyse the influence of the 2′-O-methylated oligonucleotide on immunostimulation, the concentrations of IFNγ, TNFα, IL-6, MIP-1β, RANTES, and MCP1 were measured in sera from blood collected 6 hours post LNP injection by Cytometric Bead Array (CBA), performed as described in paragraph 2.3. […] To further assess the influence of the 2′-O-methylated oligonucleotide on immunostimulation, the concentration of IFNα was measured in sera from blood collected 24 hours post LNP injection by ELISA.

Substance: 5′-GAG CGmG CCA-3′ (GAGCNGCCA; 2'-O-methyl guanosine at position 5; 9mer oligonucleotide; modified_base (5)..(5) n can be any nucleotide, wherein the nucleotide is 2-O-methylated, preferably a 2-O-methylated guanosine) [Gm18, 9-mer 2′-O-methylated RNA oligonucleotide; position 5 is 2′-O-methylated guanosine (Gm); antagonist of TLR7 and 8]
- expression of PpLuc (bioluminescence imaging) (mice (strain 129SV) [1]): increases the expression
- release of IFNγ in sera (mice (strain 129SV) [2]): strongly decreases the release
- release of IL-6 in sera (mice (strain 129SV) [2]): strongly decreases the release
- release of MCP1 in sera (mice (strain 129SV) [2]): strongly decreases the release
- release of MIP-1β in sera (mice (strain 129SV) [2]): strongly decreases the release
- release of RANTES in sera (mice (strain 129SV) [2]): strongly decreases the release
- release of TNFα in sera (mice (strain 129SV) [2]): strongly decreases the release
